Test results: patent US10787650B2, “Artificial bioluminescent enzymes” (NATIONAL INSTITUTE OF ADVANCED INDUSTRIAL SCIENCE AND …, priority 2015, dated 2020)
Residue numbers refer to the chain shown, from its start. Entries after “also recorded” stand apart in the source; their conditions may differ.

Assays:
[1] = system: ALuc16; experiment: Circular dichroism (CD) measurement of metal cation-mixed ALuc16; settings: for effect on structure of ALuc16 (CD spectra, 222 nm): varying cation concentrations
Method: Circular dichroism (CD) measurement was further conducted for reasoning the cation-driven degradation of ALuc16 activities (FIG. 9). Samples were prepared by mixing varying concentrations of Pb(II) or Al(III) with column-purified and dialyzed ALuc16, and were measured with a CD spectrometer (JASCO, Japan) after preparation.

[2] = biological target: TPv2.4 (Homo sapiens, UniProt P42345); settings: for bioluminescence intensity with TPv2.4: lysate of rapamycin-stimulated COS-7 cells, substrate 0.1 μg/μL; for luminescence intensity sustainability: compared with native coelenterazine
Method: COS-7 cells were cultured in a 96-well plate, and the cells were transiently transfected with the pcDNA3.1(+) vector encoding TP2.4. After that, the cells were cultured for 2 days. After being stimulated with 10^−6 M rapamycin for 4 hours, the cells in each well were lysed with a cell lysis buffer (50 μl) for 20 minutes. After that, an aliquot of the lysate (10 μL) was transferred to a 96-well transparent-bottom plate. Separately, about 10 kinds of coelenterazine analogs (substrates, 25 μg) were dissolved in 25 μL of ethanol. The solution was further 10-fold diluted with an assay buffer (Promega) to prepare a solution having a final concentration of 0.1 μg/μL. The solution was named substrate solution. 50 μL of the substrate solution was simultaneously introduced into the lysate solution on the plate using a multipipette, and the plate was immediately moved into an image analyzer (LAS-4000, FujiFilm), followed by optical measurement every 5 minutes in a 30-second integration time mode.
The coelenterazine analogs subjected to the measurement in this research were 9 kinds from “Coelenterazine Sampler Kit” of Promokine, i.e., native coelenterazine (nCTZ), coelenterazine h (CTZ h), coelenterazine f (CTZ f), coelenterazine i (CTZ i), coelenterazine n (CTZ n), coelenterazine cp (CTZ-cp), coelenterazine hcp (CTZ hcp), coelenterazine fcp (CTZ fcp), and coelenterazine ip (CTZ ip).

[3] = biological target: OLuc (Oplophorus gracilirostris, UniProt Q9GV45); settings: cited from earlier work
[4] = system: ALuc16; experiment: Metal cation-driven optical intensities of ALuc16 (purified enzyme); type: biochemical
Method: The metal cation-driven optical properties were estimated with ALuc16 (FIG. 6). A metal cation-free sample of ALuc16 was prepared beforehand as follows: we first generated a DNA construct of ALuc16 carrying a Strep-II tag at the C-terminus via PCR. The construct was then cloned into a pOPTHM vector (providing a cleavable N-terminal His6-MBP tag), and expressed in the bacterial strain Shuffle T7 Express (New England Biolabs) with 0.3 mM IPTG induction. […] The lysate was centrifuged at 18,000 rpm for 40 minutes, and then the supernatant was passed over a 5 mL HisTrap HP column (GE Healthcare). […] The eluted sample was dialyzed to a metal-cation-free Tris-HCl buffer (0.05 M, pH 8.2) at 4° C. for 24 hours, and finally adjusted to a concentration of 1 mg/ml by dilution. […] Meanwhile, the corresponding substrate solution carrying nCTZ (Promega) was diluted 100-fold with the cation-free Tris-HCl buffer (Solution B). 50 μL of Solution B was simultaneously injected into Solution A in the 96-well plate with a multichannel micropipette (Gilson). The microplate was immediately moved to an image analyzer (LAS-4000, FujiFilm) equipped with a cooled charge-coupled device (CCD) camera, and the optical intensities were simultaneously estimated in a precision mode. The measurements were conducted in triplicate (n=3). The optical images were analyzed with Multi Gauge V3.2 (FujiFilm). […] The experiment was conducted by the same method as that of FIG. 6. In the inset, the optical image taken with LAS-4000 (FujiFilm) is shown.

[5] = system: Fridericia luciferase; settings: cited from earlier work
[6] = system: ALuc16; experiment: Cation-driven long-term stability of optical intensities of ALuc16; type: biochemical; settings: 60 minutes after substrate injection
Method: The long-term stability of optical intensities was estimated by the same method as that of FIG. 6(A) (FIG. 8(A)). The microplate was placed in the chamber of LAS-4000, and the optical intensities were monitored every 5 minutes, after substrate injection, for a duration of 60 minutes.

[7] = Luminescence activity of novel artificial bioluminescent enzymes (COS-7 cell lysate); type: biochemical, African green monkey; settings: COS-7 lysate, native coelenterazine
Method: African green monkey kidney-derived COS-7 cells were cultured using a 96-well microplate. The COS-7 cells were grown until occupying 90% of the bottom-surface area of the culture plate, and, as shown in FIG. 19 and FIG. 20, were each transiently transfected with a pcDNA 3.1(+) vector (Invitrogen) encoding each luminescent enzyme with a lipofection reagent (TransIT-LT1, Mirus). After that, the cells were further cultured for about 1 day. After the culture, cell lysates were prepared using a cell lysis agent (Lysis buffer, Promega), and 5 μL each of the cell lysates was taken from each well and transferred to a 96-well microplate for measurement. An assay buffer (50 μL) containing native coelenterazine was simultaneously added to each well using a multichannel pipette. Immediately after the addition of the assay buffer, the microplate was moved into the black box of an image analyzer (LAS-4000, FujiFilm), and luminescence images were measured with a CCD camera (FIG. 19 and FIG. 20).

[8] = Proton-dependent optical intensities and optical stability of ALucs (COS-7 cell lysate); type: biochemical, African green monkey; settings: for elevation of optical intensities at pH 7 as compared to pH 6: COS-7 lysate, nCTZ; for intensities as share of the initial intensities 20 minutes after substrate injection: pH 9, coelenterazine analog
Method: The proton-driven optical intensities of ALucs were calculated to help elucidate the proton-bioluminescence relationship (FIG. 4). […] The cells were cultured and lysed by the same method as that of FIG. 2(B). Then, 10 μL of the lysates in the plate were simultaneously mixed with 40 µL of the substrate solution, which was prepared by mixing a native coelenterazine (nCTZ) stock (FIG. 4(B)) with an aliquot of the universal buffer with the pH ranging from 4 to 9 (final concentration of the substrate: 0.1 mg/ml). Immediately after the substrate injection, the plate was moved into an image analyzer (LAS-4000, FujiFilm), and relative optical intensities were integrated for 30 seconds. The time course of the intensities was estimated every 5 minutes for 20 minutes (FIG. 4(D)).

[9] = metal cation-free Tris-HCl buffer (pH 8.2, 0.05 M), nCTZ

Sequence of OLuc (Q9GV45 28-196): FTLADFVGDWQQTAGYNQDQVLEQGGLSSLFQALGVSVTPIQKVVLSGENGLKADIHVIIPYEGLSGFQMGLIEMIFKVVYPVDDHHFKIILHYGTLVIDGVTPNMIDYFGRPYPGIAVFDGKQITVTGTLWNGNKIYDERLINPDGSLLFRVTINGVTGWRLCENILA
Sequence of TPv2.4 (P42345 with tags, fused parts or gaps): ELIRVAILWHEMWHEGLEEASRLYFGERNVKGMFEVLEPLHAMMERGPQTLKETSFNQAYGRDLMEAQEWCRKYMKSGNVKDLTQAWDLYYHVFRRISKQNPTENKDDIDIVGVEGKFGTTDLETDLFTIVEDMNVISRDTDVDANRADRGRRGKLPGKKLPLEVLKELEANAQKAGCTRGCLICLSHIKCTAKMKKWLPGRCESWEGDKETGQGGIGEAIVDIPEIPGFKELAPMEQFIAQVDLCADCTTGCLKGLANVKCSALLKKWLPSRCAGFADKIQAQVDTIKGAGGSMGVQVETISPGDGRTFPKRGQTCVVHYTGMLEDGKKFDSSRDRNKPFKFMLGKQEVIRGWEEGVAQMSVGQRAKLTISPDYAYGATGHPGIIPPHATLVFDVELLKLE

## [Cl][Al]([Cl])[Cl] [Al(III)]
[1]
  effect on structure of ALuc16 (CD spectra, 222 nm): α-helical portion is gradually decreased; also recorded: destroy the tertiary structure of ALuc16; also recorded: the structure of ALuc16 is denatured

## Oc1ccc(Cc2nc3c(CC4CCCC4)nc(-c4ccc(O)cc4)cn3c2O)cc1 [CTZ cp, coelenterazine cp]
[2]
  bioluminescence intensity with TPv2.4: weak luminescence intensities

## Oc1ccc(-c2cn3c(O)c(Cc4ccc(F)cc4)nc3c(CC3CCCC3)n2)cc1 [CTZ fcp, coelenterazine fcp]
[2]
  bioluminescence intensity with TPv2.4: weak luminescence intensities

## Oc1ccc(-c2cn3c(O)c(Cc4ccccc4)nc3c(CC3CCCC3)n2)cc1 [CTZ hcp, coelenterazine hcp]
[2]
  bioluminescence intensity with TPv2.4: weak luminescence intensities

## O=c1c(Cc2ccc(I)cc2)nc2c(Cc3ccccc3)[nH]c(-c3ccc(O)cc3)cn1-2 [CTZ i, coelenterazine i]
[2]
  luminescence half-life from substrate injection: about 15 minutes
  luminescence intensity sustainability: longer than that of native coelenterazine

## [Cl][Cd][Cl] [Cd(II)]
[3]
  effect on optical intensity of OLuc: inhibited the optical intensity

## [Cl-].[Cl-].[Co+2] [Co(II)]
[4]; [9]
  effect on optical intensities (activities) of ALuc16: suppress

## [Cl][Cu][Cl] [Cu(II)]
[4]; [9]
  effect on optical intensities (activities) of ALuc16: suppress
[3]
  effect on optical intensity of OLuc: inhibited the optical intensity

## [K+] [K^+]
[4]; [9]
  effect on optical intensities (activities) of ALuc16: little effect

## [Li+] [Li^+]
[4]; [9]
  effect on optical intensities (activities) of ALuc16: little effect

## [Cl-].[Cl-].[Mg+2] [Mg(II)]
[5]
  effect on activities of Fridericia luciferase: elevate
[6]
  effect on long-term stability of bioluminescence intensities: seldom influences the long-term stability

## [Cl][Mn][Cl] [Mn(II)]
[4]; [9]
  effect on optical intensities (activities) of ALuc16: boosting effect with Mn(II) was not observed
[5]
  effect on activities of Fridericia luciferase: elevate

## N [NH4^+]
[4]; [9]
  effect on optical intensities (activities) of ALuc16: little effect

## [Na+] [Na^+]
[4]; [9]
  effect on optical intensities (activities) of ALuc16: little effect

## [Cl][Pb][Cl] [Pb(II)]
[4]; Tris-HCl, pH 8.2
  concentration by which the optical intensity was quickly decreased: 1 µg/mL
[4]; dose-response of ALuc16 activities
  detection limit: around 0.4 μg/mL
[4]; [9]
  effect on optical intensities (activities) of ALuc16: suppress; also recorded: quickly inhibited
[1]
  levels that showed basal noise CD spectra: higher than 1 μg/mL
  effect on structure of ALuc16 (CD spectra, 222 nm): destroy the tertiary structure of ALuc16; also recorded: the structure of ALuc16 is denatured

## [Cl-].[Cl-].[Zn+2] [Zn(II)]
[4]; [9]
  effect on optical intensities (activities) of ALuc16: suppress
[3]
  effect on optical intensity of OLuc: inhibited the optical intensity

## Cr(VI)
[4]; [9]
  elevation of ALuc16 activities / optical intensities: about 2 times

## coelenterazine f [CTZ f]
[2]
  bioluminescence intensity with TPv2.4: strongest bioluminescence intensities

## coelenterazine h [CTZ h]
[2]
  bioluminescence intensity with TPv2.4: strongest bioluminescence intensities

## coelenterazine ip [CTZ ip]
[2]
  bioluminescence intensity with TPv2.4: weak luminescence intensities

## coelenterazine n [CTZ n]
[2]; 20 minutes after substrate injection
  initial luminescence intensity retained: about 60%
[2]
  luminescence intensity sustainability: longer than that of native coelenterazine

## native coelenterazine [nCTZ]
[2]
  bioluminescence intensity with TPv2.4: strongest bioluminescence intensities

B1: ALuc49: artificial luciferase, SEQ ID NO: 9 (protein)
chain: MMGIKVLFALVCLALVQAKPTEDEDEDDIVDVVGNFWAIGVDNDRDFTISADRGKLPGKKLPKEVLIEIEANAKKAGCTRGCLICLSKIKCTAKMKKWLPGRCHSYEGDKDTGQGGIGEPIVDAPEIPGFKDLTPMEQFIAQVDLCADCTTGCLKGLANVKCSALLKKWLPDRCASFADKIQKEVDYIKGLAGS
[7]
  luminescence intensities as compared to conventional ALucs (e.g., ALuc16 and ALuc30): even stronger luminescence intensities

B2: ALuc46: artificial luciferase, SEQ ID NO: 6 (protein)
chain: B1 chain with K183S, D186A, Y187T
[7]
  luminescence intensities as compared to conventional ALucs (e.g., ALuc16 and ALuc30): relatively low luminescence intensities

B3: ALuc50: artificial luciferase, SEQ ID NO: 10 (protein)
chain: B1 chain with Y187F
[7]
  luminescence intensities as compared to conventional ALucs (e.g., ALuc16 and ALuc30): even stronger luminescence intensities

B4: ALuc41: artificial luciferase, SEQ ID NO: 2 (protein)
chain: B1 chain with Y187T
[7]
  luminescence intensities as compared to conventional ALucs (e.g., ALuc16 and ALuc30): relatively low luminescence intensities

B5: ALuc47: artificial luciferase, SEQ ID NO: 7 (protein)
chain: B1 chain with D186G, Y187T, A192L
[7]
  luminescence intensities as compared to conventional ALucs (e.g., ALuc16 and ALuc30): relatively low luminescence intensities

B6: ALuc23: conventional artificial luciferase from the inventor's previous research, SEQ ID NO: 32 (protein)
chain: MMGIKVLFALICFALVQANPTENKDDIDIVGVEGKFGTTDLETDLFTIVEDMNVISRDTDVDANRADRGRRGKLPGKKLPLEVLKELEANAQKAGCTRGCLICLSHIKCTAKMKKWLPGRCESWEGDKETGQGGIGEAIVDIPEIPGFKELAPMEQFIAQVDLCADCTTGCLKGLANVKCSALLKKWLPSRCAGFADKIQAQVDTIKGAGGS
modifications: Synthetic Sequence - ALuc23
[8]
  elevation of optical intensities at pH 7 as compared to pH 6: about 5 fold
  intensities as share of the initial intensities 20 minutes after substrate injection: 41%

B7: ALuc34: conventional artificial luciferase, SEQ ID NO: 35 (protein)
chain: B6 chain with P20M, T21M, E22D, N23Y, I27D, I29K
modifications: Synthetic Sequence - ALuc34
[8]
  elevation of optical intensities at pH 7 as compared to pH 6: about 5 fold
  intensities as share of the initial intensities 20 minutes after substrate injection: 60%
